Key:
[1] = tested on: dogs with stage C heart failure; settings: cited from earlier work; for median survival: dogs with stage C heart failure, composite primary endpoint
[2] = tested on: dogs with stage B heart failure; settings: cited from earlier work
cats with CKD = settings: cited from earlier work; for reduction in urinary protein to creatinine ratio: cats, 7, 30, 60, 90, 120 and 180 days
[3] = tested on: human SGLT2 compared to human SGLT1; settings: compared with other SGLT inhibitors; cited from earlier work
[4] = tested on: client-owned dogs with CKD; settings: cited from earlier work
[5] = tested on: client-owned cats with heart disease; settings: 151 client-owned cats with heart disease; cited from earlier work
[6] = tested on: diabetic subjects with stage A3 albuminuria; settings: humans, median 2.62 years; cited from earlier work
Sprague-Dawley rats = assay: PPAR-γ agonist (pioglitazone)-mediated fluid retention / plasma expansion model, 7 days, drugs in drinking water; type: in vivo, rat
Excerpt: It has been recognized in human clinical practice that an undesirable side effect of PPAR-γ agonists of the thiazolidinedione class is fluid retention and edema, which limits their use in patients with congestive heart failure. The mechanism of action of the thiazolidinediones is believed to be through stimulation of expression of the epithelial sodium channel (ENaC) in the kidney, resulting in an increased uptake of sodium ions from the distal tubule. Sodium retention and the associated expansion of extracellular fluid volume are characteristic features of congestive heart failure in multiple species. […] The sodium channel blocker amiloride was delivered in drinking water to a third group of rats as a comparator. Plasma expansion was measured by hematocrit. […] Food weight was recorded to measure consumption over the course of the experiment. […] Full bottles were pre-weighed and the weights recorded to allow consumption to be measured over the course of the experiment. On days 1 and 7, rats were warmed using a heating pad and lightly anesthetized using isoflurane. Using a sterile scalpel blade, a small tail nick was made on the distal one third of the tail. Blood was collected in a heparinized microcapillary tube sealed with putty at one end and stored on ice until centrifugation (5000 rpm, 5 min). Plasma volume was determined using a microhematocrit capillary tube reader card. On day 7, rats, food and water bottles were again weighed and recorded and hematocrits were determined using blood collected by a tail nick.

[7] = rats, day 1 to day 7, mean ± SEM
[8] = rats, pioglitazone diet, mean ± SEM
[9] = rats, relative to day 1, mean ± SEM

## COc1ccc(-c2nc3ccc(C4=NNC(=O)CC4C)cc3[nH]2)cc1 (stereo not shown) [pimobendan]
[1]
  median survival: 267 days
[1]; pimobendan vs benazepril, 95% CI 0.516 to 0.916, p=0.0099
  hazard ratio: 0.688
[2]; dogs with stage B heart failure, onset of CHF, cardiac-related death, or euthanasia, 95% CI: 856-NA
  median time to the primary endpoint: 1228 days
[2]; pimobendan vs placebo, 95% CI: 0.47-0.87
  hazard ratio: 0.64

## CCCc1nc2c(C)cc(-c3nc4ccccc4n3C)cc2n1Cc1ccc(-c2ccccc2C(=O)O)cc1 [telmisartan]
Cats with CKD; cats with CKD
  comparison with benazepril: noninferior to benazepril
Cats with CKD
  reduction in urinary protein to creatinine ratio: significant at all time points

## Cc1cc(OCCCNCC(C)(C)C(N)=O)ccc1Cc1c(O[C@@H]2O[C@H](CO)[C@@H](O)[C@H](O)[C@H]2O)n[nH]c1C(C)C [mizagliflozin]
[3]
  selectivity for human SGLT2 compared to human SGLT1 (in words): more active against SGLT1 than SGLT2

## CCOC(=O)[C@H](CCc1ccccc1)N[C@H]1CCc2ccccc2N(CC(=O)O)C1=O [benazepril]
[4]; 49 client-owned dogs
  difference in renal survival time vs placebo: significance was not realized
[4]; dogs, p=0.0032
  proteinuria (urinary protein to creatinine ratio): significantly improved
Cats with CKD
  reduction in urinary protein to creatinine ratio: not significant
[1]
  median survival: 140 days
[5]
  primary endpoint of treatment failure: no benefit

## Cc1ccc([C@@H]2O[C@H](CO)[C@@H](O)[C@H](O)[C@H]2O)cc1Cc1ccc(-c2ccc(F)cc2)s1 [canagliflozin]
[6]
  risk of composite of end-stage kidney disease, doubling of serum creatinine, or renal or cardiovascular death, lower than placebo: 30%

## N=C(N)NC(=O)c1nc(Cl)c(N)nc1N [Amiloride, reference compound]
Sprague-Dawley rats; rats after 7 days pioglitazone diet, group mean ± SEM
  Plasma volume, Day 7: 56.6 ± 0.4 % of blood volume
Sprague-Dawley rats; rats on 0.03% pioglitazone diet, by hematocrit, group mean ± SEM
  Plasma volume, Day 1: 52.7 ± 0.9 % of blood volume
Sprague-Dawley rats; rats, 7 days
  Effect on pioglitazone-mediated plasma expansion (conclusion): markedly less effective than bexagliflozin
Sprague-Dawley rats; [7]
  Body Weight (%), Δ (percent mass gain): 10.8 ± 0.7%
  Body Weight (g), Δ: 40.0 ± 2.8 g
Sprague-Dawley rats; rats, pioglitazone diet, group mean ± SEM
  Plasma volume, Δ (day 1 to day 7): 3.9 ± 0.7 % of blood volume
Sprague-Dawley rats; [8]
  Body Weight (g), Day 1: 370.0 ± 6.0 g
  Body Weight (g), Day 7: 410.0 ± 7.7 g
Sprague-Dawley rats; [9]
  Body Weight (%), Day 1: 100 ± 0%
  Body Weight (%), Day 7: 110.8 ± 0.7 %

## CCc1ccc([C@@H]2O[C@H](CO)[C@@H](O)[C@H](O)[C@H]2O)cc1Cc1ccc2c(c1)OCCO2 [licogliflozin]
[3]
  selectivity for human SGLT2 compared to human SGLT1 (in words): lower selectivity

## CCOc1ccc(Cc2cc([C@@H]3O[C@H](SC)[C@@H](O)[C@H](O)[C@H]3O)ccc2Cl)cc1 [sotagliflozin]
[3]
  selectivity for human SGLT2 compared to human SGLT1 (in words): lower selectivity

Source: patent publication US20230000816A1, “SODIUM-GLUCOSE LINKED TRANSPORTER INHIBITORS FOR THE MANAGEMENT OF CHRONIC KIDNEY DISEASE, HYPERTENSION, AND HEART FAILURE IN COMPANION ANIMALS” (INCREVET, INC., priority 2019, published 2023)
